The values that follow are results of earlier work, collected in patent publication EP2103943A1, “GDF-15 for assessing a cardiovascular risk with respect to the administration of antiinflammatory drugs” (F. Hoffmann-La Roche AG, priority 2008, dated 2009).

On to `CS(=O)(=O)c1ccc(C2=C(c3ccccc3)C(=O)OC2)cc1` [Rofecoxib], for which the “additional cardiovascular incidents (myocardial infarction, stroke)” value (25 mg rofecoxib compared with a placebo, after 18 months of follow-up) is given as 16 per 1,000 treated patients. In addition, the blood pressure levels entry (25 mg rofecoxib compared with a placebo, early post-observation phase) is reported as “higher blood pressure levels”. The “rise in the rate of serious thromboembolic incidents” value (APPROVE study, patients without any recognisable cardiovascular risk, led to premature discontinuation) was 3.9 times.
